Source: ChEMBL document CHEMBL4396913, “Synthesis and biological evaluation of hybrid quinolone-based quaternary ammonium antibacterial agents” (Eur J Med Chem, 2019)
Converted amounts (≈) assume the structure as drawn. The source made the active and inactive calls. No cut-off for these calls is given here.

Columns and labels:
Bacillus spizizenii [1] = experiment: Bactericidal activity against Bacillus subtilis ATCC 6633 cultured in MH medium assessed as reduction in bacterial survival incubated for 48 hrs by microbroth dilution method; type: functional; settings: ATCC 6633, 48 h
[2] = test system: Staphylococcus epidermidis; experiment: Bactericidal activity against methicillin resistant Staphylococcus epidermidis ATCC 13199 cultured in MH medium assessed as reduction in bacterial survival incubated for 48 hrs by microbroth dilution method; type: functional; settings: ATCC 13199, 48 h
Pseudomonas aeruginosa [3] = experiment: Antibacterial activity against Pseudomonas aeruginosa ATCC 9027 cultured in MH medium assessed as reduction in bacterial growth incubated for 48 hrs by microbroth dilution method; type: functional; settings: ATCC 9027, 48 h
[4] = test system: Staphylococcus epidermidis; experiment: Bactericidal activity against Staphylococcus epidermidis ATCC 14990 cultured in MH medium assessed as reduction in bacterial survival incubated for 48 hrs by microbroth dilution method; type: functional; settings: ATCC 14990, 48 h
Enterococcus hirae [5] = experiment: Antibacterial activity against Enterococcus hirae ATCC 1052 cultured in BHI medium assessed as reduction in bacterial growth incubated for 48 hrs by microbroth dilution method; type: functional; settings: ATCC 1052, 48 h
Pseudomonas aeruginosa [6] = experiment: Biofilm degradation activity against Pseudomonas aeruginosa ATCC 9027 assessed as biofilm formation at 2 times antibacterial MIC incubated for 24 hrs compound added post-biofilm formation by total biomass crystal violet staining-based method; type: functional
Serratia marcescens [7] = experiment: Bactericidal activity against Serratia marcescens ATCC 12795 cultured in MH medium assessed as reduction in bacterial survival incubated for 48 hrs by microbroth dilution method; type: functional; settings: ATCC 12795, 48 h
Streptococcus pneumoniae [8] = experiment: Antibacterial activity against Streptococcus pneumoniae cultured in MH medium assessed as reduction in bacterial growth incubated for 48 hrs by microbroth dilution method; type: functional
Staphylococcus aureus [9] = experiment: Bactericidal activity against methicillin resistant Staphylococcus aureus 6347 cultured in MH medium assessed as reduction in bacterial survival incubated for 48 hrs by microbroth dilution method; type: functional; settings: Staphylococcus aureus, 6347, 48 h
[10] = test system: Staphylococcus epidermidis; experiment: Antibacterial activity against methicillin resistant Staphylococcus epidermidis ATCC 13199 cultured in MH medium assessed as reduction in bacterial growth incubated for 48 hrs by microbroth dilution method; type: functional; settings: ATCC 13199, 48 h
Proteus vulgaris [11] = experiment: Bactericidal activity against Proteus vulgaris NCTC 4635 cultured in MH medium assessed as reduction in bacterial survival incubated for 48 hrs by microbroth dilution method; type: functional; settings: NCTC 4635, 48 h
Pseudomonas aeruginosa [12] = experiment: Bactericidal activity against Pseudomonas aeruginosa ATCC 9027 cultured in MH medium assessed as reduction in bacterial survival incubated for 48 hrs by microbroth dilution method; type: functional; settings: ATCC 9027, 48 h
Bacillus spizizenii [13] = experiment: Antibacterial activity against Bacillus subtilis ATCC 6633 cultured in MH medium assessed as reduction in bacterial growth incubated for 48 hrs by microbroth dilution method; type: functional; settings: ATCC 6633, 48 h
Pseudomonas aeruginosa [14] = experiment: Antibiofilm activity against Pseudomonas aeruginosa ATCC 9027 assessed as biofilm formation at antibacterial MIC incubated for 24 hrs compound added prior to bacterial biofilm formation by total biomass crystal violet staining-based method relative to control; type: functional
Proteus vulgaris [15] = experiment: Antibacterial activity against Proteus vulgaris NCTC 4635 cultured in MH medium assessed as reduction in bacterial growth incubated for 48 hrs by microbroth dilution method; type: functional; settings: NCTC 4635, 48 h
Staphylococcus aureus [16] = experiment: Antibacterial activity against Staphylococcus aureus ATCC 6538 cultured in MH medium assessed as reduction in bacterial growth incubated for 48 hrs by microbroth dilution method; type: functional; settings: ATCC 6538, 48 h
Staphylococcus aureus [17] = experiment: Biofilm degradation activity against Staphylococcus aureus ATCC 6538 assessed as biofilm formation at 2 times antibacterial MIC incubated for 24 hrs compound added post-biofilm formation by total biomass crystal violet staining-based method; type: functional
Escherichia coli [18] = experiment: Bactericidal activity against Escherichia coli ATCC 8739 cultured in MH medium assessed as reduction in bacterial survival incubated for 48 hrs by microbroth dilution method; type: functional; settings: ATCC 8739, 48 h
Enterococcus hirae [19] = experiment: Bactericidal activity against Enterococcus hirae ATCC 1052 cultured in BHI medium assessed as reduction in bacterial survival incubated for 48 hrs by microbroth dilution method; type: functional; settings: ATCC 1052, 48 h
Staphylococcus aureus [20] = experiment: Biofilm degradation activity against Staphylococcus aureus ATCC 6538 assessed as biofilm formation at 4 times antibacterial MIC incubated for 24 hrs compound added post-biofilm formation by total biomass crystal violet staining-based method; type: functional
Staphylococcus aureus [21] = experiment: Antibacterial activity against methicillin resistant Staphylococcus aureus 6347 cultured in MH medium assessed as reduction in bacterial growth incubated for 48 hrs by microbroth dilution method; type: functional; settings: Staphylococcus aureus, 6347, 48 h
Escherichia coli [22] = experiment: Antibacterial activity against Escherichia coli ATCC 8739 cultured in MH medium assessed as reduction in bacterial growth incubated for 48 hrs by microbroth dilution method; type: functional; settings: ATCC 8739, 48 h
Pseudomonas aeruginosa [23] = experiment: Biofilm degradation activity against Pseudomonas aeruginosa ATCC 9027 assessed as biofilm formation at 4 times antibacterial MIC incubated for 24 hrs compound added post-biofilm formation by total biomass crystal violet staining-based method; type: functional
Staphylococcus aureus [24] = experiment: Bactericidal activity against Staphylococcus aureus ATCC 6538 cultured in MH medium assessed as reduction in bacterial survival incubated for 48 hrs by microbroth dilution method; type: functional; settings: ATCC 6538, 48 h
Pseudomonas aeruginosa [25] = experiment: Biofilm degradation activity against Pseudomonas aeruginosa ATCC 9027 assessed as biofilm formation at antibacterial MIC incubated for 24 hrs compound added post-biofilm formation by total biomass crystal violet staining-based method; type: functional
Staphylococcus aureus [26] = experiment: Antibacterial activity against methicillin resistant Staphylococcus aureus N315 cultured in MH medium assessed as reduction in bacterial growth incubated for 48 hrs by microbroth dilution method; type: functional; settings: N315, 48 h
[27] = test system: Staphylococcus epidermidis; experiment: Antibacterial activity against Staphylococcus epidermidis ATCC 14990 cultured in MH medium assessed as reduction in bacterial growth incubated for 48 hrs by microbroth dilution method; type: functional; settings: ATCC 14990, 48 h
Staphylococcus aureus [28] = experiment: Antibiofilm activity against Staphylococcus aureus ATCC 6538 assessed as biofilm formation at 0.5 times antibacterial MIC incubated for 24 hrs compound added prior to bacterial biofilm formation by total biomass crystal violet staining-based method relative to control; type: functional
[29] = Lipophilicity, log k of the compound at 100 ug/ml by micellar electrokinetic chromatography; type: physicochemical
Staphylococcus aureus [30] = experiment: Biofilm degradation activity against Staphylococcus aureus ATCC 6538 assessed as biofilm formation at antibacterial MIC incubated for 24 hrs compound added post-biofilm formation by total biomass crystal violet staining-based method; type: functional
Pseudomonas aeruginosa [31] = experiment: Antibiofilm activity against Pseudomonas aeruginosa ATCC 9027 assessed as biofilm formation at 0.5 times antibacterial MIC incubated for 24 hrs compound added prior to bacterial biofilm formation by total biomass crystal violet staining-based method relative to control; type: functional
Serratia marcescens [32] = experiment: Antibacterial activity against Serratia marcescens ATCC 12795 cultured in MH medium assessed as reduction in bacterial growth incubated for 48 hrs by microbroth dilution method; type: functional; settings: ATCC 12795, 48 h
Staphylococcus aureus [33] = experiment: Antibiofilm activity against Staphylococcus aureus ATCC 6538 assessed as biofilm formation at antibacterial MIC incubated for 24 hrs compound added prior to bacterial biofilm formation by total biomass crystal violet staining-based method relative to control; type: functional
Streptococcus pneumoniae [34] = experiment: Bactericidal activity against Streptococcus pneumoniae cultured in MH medium assessed as reduction in bacterial survival incubated for 48 hrs by microbroth dilution method; type: functional
Staphylococcus aureus [35] = experiment: Bactericidal activity against methicillin resistant Staphylococcus aureus N315 cultured in MH medium assessed as reduction in bacterial survival incubated for 48 hrs by microbroth dilution method; type: functional; settings: N315, 48 h
Staphylococcus aureus [36] = settings: ATCC 25923, 10 to 40 uM
Description: Antibiofilm activity Staphylococcus aureus ATCC 25923 pre-formed mature biofilm assessed as reduction in biofilm viability at 10 to 40 uM incubated for 24 hrs compound added post-biofilm formation by resazurin staining based assay relative to control

Staphylococcus aureus [37] = settings: ATCC 25923, 10 to 40 uM; remark: listed apart in the source
Description: Antibiofilm activity Staphylococcus aureus ATCC 25923 pre-formed mature biofilm assessed as reduction in biofilm biomass at 10 to 40 uM incubated for 24 hrs compound added post biofilm formation by crystal violet staining based assay relative to control

[38] = target: DNA gyrase (Escherichia coli) (UniProt P0AES6+P0AES4); experiment: Inhibition of Escherichia coli DNA gyrase super-coiling activity using relaxed pNO1 DNA as substrate assessed as enzyme residual activity at 1 uM incubated for 30 mins by fluorescence assay relative to control; type: protein-complex assay
Escherichia coli [39] = experiment: Induction of inner membrane permeabilization in Escherichia coli ATCC 8739 assessed as increase in release of cytoplasmic beta galactosidase using ONPG as substrate at 128 ug/ml incubated for 90 mins compound added with bacterial cells after lag time of about 10 mins by spectrophotometry; type: organism-based

SMILES | MBC (Bacillus spizizenii [1]) [µg/mL] | MBC [4] [µg/mL] | MIC (Enterococcus hirae [5]) [µg/mL] | Activity (Pseudomonas aeruginosa [6]) [%] | MBC (Serratia marcescens [7]) [µg/mL] | MIC (Streptococcus pneumoniae [8]) [µg/mL] | MBC (Staphylococcus aureus [9]) [µg/mL] | MBC (Proteus vulgaris [11]) [µg/mL] | MBC (Pseudomonas aeruginosa [12]) [µg/mL] | MIC (Bacillus spizizenii [13]) [µg/mL] | Activity (Pseudomonas aeruginosa [14]) [%] | MIC (Proteus vulgaris [15]) [µg/mL] | MIC (Staphylococcus aureus [16]) [µg/mL] | Activity (Staphylococcus aureus [17]) [%] | MBC (Escherichia coli [18]) [µg/mL] | MBC (Enterococcus hirae [19]) [µg/mL] | Activity (Staphylococcus aureus [20]) [%] | MIC (Staphylococcus aureus [21]) [µg/mL] | MIC (Escherichia coli [22]) [µg/mL] | Activity (Pseudomonas aeruginosa [23]) [%] | other results
CCn1cc(C(=O)O)c(=O)c2cc(F)c(N3CCNCC3)nc21 [ENOXACIN] | 0.125 (≈ 0.39 µM) | 2 (≈ 6.24 µM) | 64 (≈ 200 µM) | 49 | 0.25 (≈ 0.78 µM) | 32 (≈ 99.9 µM) | 1 (≈ 3.12 µM) | 0.063 (≈ 0.197 µM) | 0.5 (≈ 1.56 µM) | 0.125 (≈ 0.39 µM) | 7 | 0.032 (≈ 0.0999 µM) | 1 (≈ 3.12 µM) | 28 | 0.5 (≈ 1.56 µM) | 64 (≈ 200 µM) | 8 | 0.5 (≈ 1.56 µM) | 0.25 (≈ 0.78 µM) | 49 | MBC [2]: 0.25 µg/mL (≈ 0.78 µM); MIC (Pseudomonas aeruginosa [3]): 0.5 µg/mL (≈ 1.56 µM); MIC [10]: 0.25 µg/mL (≈ 0.78 µM); MBC (Staphylococcus aureus [24]): 1 µg/mL (≈ 3.12 µM); Activity (Pseudomonas aeruginosa [25]): 46%; MIC (Staphylococcus aureus [26]): 1 µg/mL (≈ 3.12 µM); MIC [27]: 0.5 µg/mL (≈ 1.56 µM); Activity (Staphylococcus aureus [28]): 27%; log K [29]: 0.1564; Activity (Staphylococcus aureus [30]): 45%; Activity (Pseudomonas aeruginosa [31]): 27%; MIC (Serratia marcescens [32]): 0.25 µg/mL (≈ 0.78 µM); Activity (Staphylococcus aureus [33]): 29%; MBC (Streptococcus pneumoniae [34]): > 512 µg/mL; MBC (Staphylococcus aureus [35]): 1 µg/mL (≈ 3.12 µM)
O=C(O)c1cn(C2CC2)c2cc(N3CCNCC3)c(F)cc2c1=O [CIPROFLOXACIN] | 0.063 (≈ 0.19 µM) | 0.25 (≈ 0.754 µM) | 128 (≈ 386 µM) | 72 | 0.125 (≈ 0.377 µM) | 8 (≈ 24.1 µM) | 0.5 (≈ 1.51 µM) | 0.008 (≈ 0.0241 µM) | 0.5 (≈ 1.51 µM) | 0.032 (≈ 0.0966 µM) | 3 | 0.008 (≈ 0.0241 µM) | 0.25 (≈ 0.754 µM) | 17 | 0.032 (≈ 0.0966 µM) | 128 (≈ 386 µM) | 31 | 0.25 (≈ 0.754 µM) | 0.032 (≈ 0.0966 µM) | 64 | inhibition (Staphylococcus aureus [36]): Active; inhibition (Staphylococcus aureus [37]): Active; MBC (Staphylococcus aureus [24]): 0.5 µg/mL (≈ 1.51 µM); Activity (Pseudomonas aeruginosa [25]): 76%; MIC (Staphylococcus aureus [26]): 1 µg/mL (≈ 3.02 µM); Activity [38]: 7%; Activity (Escherichia coli [39]): Active; MIC [27]: 0.25 µg/mL (≈ 0.754 µM); Activity (Staphylococcus aureus [28]): 5%; Activity (Staphylococcus aureus [30]): 21%; Activity (Pseudomonas aeruginosa [31]): 7%; MIC (Serratia marcescens [32]): 0.125 µg/mL (≈ 0.377 µM); Activity (Staphylococcus aureus [33]): 3%; MBC (Streptococcus pneumoniae [34]): > 512 µg/mL
